Inconclusive results and toxic doses are left out. Rule as the data show it: active = T/C of 150% or more; inactive = T/C below 125%.
System: L1210 leukemia ip in BDF1 mice, survival T/C
Experiment: NCI In Vivo Anticancer Drug Screen. Data for tumor model L1210 Leukemia (intraperitoneal) in B6D2F1 (BDF1) mice
Conditions: higher = longer survival
How it was run: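 Transplanted-tumor mice were given test agent; controls received vehicle only. Survival readings from the two groups were divided (treated over control).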

[1] = endpoint: mean survival time, dose: 100.0 mg/kg/injection, schedule: Q04DX003 (ip), vehicle: Klucel (hydroxypropylcellulose) (HPC)
[2] = endpoint: mean survival time, dose: 100.0 mg/kg/injection, schedule: Q04DX003 (ip), vehicle: saline with Tween-80
[3] = endpoint: mean survival time, dose: 200.0 mg/kg/injection, schedule: Q04DX003 (ip), vehicle: saline with Tween-80
[4] = endpoint: mean survival time, dose: 400.0 mg/kg/injection, schedule: Q04DX003 (ip), vehicle: saline with Tween-80
[5] = endpoint: mean survival time, dose: 100.0 mg/kg/injection, schedule: Q01DX009 (ip), vehicle: saline
[6] = endpoint: mean survival time, dose: 200.0 mg/kg/injection, schedule: Q01DX009 (ip), vehicle: saline
[7] = endpoint: mean survival time, dose: 100.0 mg/kg/injection, schedule: Q01DX001 (ip), vehicle: saline
[8] = endpoint: mean survival time, dose: 50.0 mg/kg/injection, schedule: Q01DX009 (ip), vehicle: saline with Tween-80
[9] = endpoint: mean survival time, dose: 50.0 mg/kg/injection, schedule: Q04DX003 (ip), vehicle: saline with Tween-80
[10] = endpoint: mean survival time, dose: 100.0 mg/kg/injection, schedule: Q01DX009 (ip), vehicle: saline with Tween-80
[11] = endpoint: mean survival time, dose: 200.0 mg/kg/injection, schedule: Q01DX009 (ip), vehicle: saline with Tween-80
[12] = endpoint: mean survival time, dose: 100.0 mg/kg/injection, schedule: Q04DX003 (ip), vehicle: saline
[13] = endpoint: mean survival time, dose: 200.0 mg/kg/injection, schedule: Q04DX003 (ip), vehicle: saline
[14] = endpoint: mean survival time, dose: 400.0 mg/kg/injection, schedule: Q04DX003 (ip), vehicle: saline

Measured: T/C

CC(=O)C1C(=O)C(=O)OC1C (stereo unspecified)
inactive: endpoint: mean survival time, dose: 100.0 mg/kg/injection, schedule: Q04DX003 (ip), vehicle: alcohol 94 % of control | endpoint: mean survival time, dose: 200.0 mg/kg/injection, schedule: Q04DX003 (ip), vehicle: alcohol 96 % of control

O=C(O)C(Cl)c1ccccc1 (stereo unspecified)
inactive: endpoint: mean survival time, dose: 25.0 mg/kg/injection, schedule: Q01DX009 (ip), vehicle: gum acacia 114 % of control | endpoint: mean survival time, dose: 50.0 mg/kg/injection, schedule: Q01DX009 (ip), vehicle: gum acacia 109 % of control | endpoint: mean survival time, dose: 100.0 mg/kg/injection, schedule: Q01DX009 (ip), vehicle: gum acacia 106 % of control | [1] 92 % of control | [2] 95 % of control | endpoint: mean survival time, dose: 200.0 mg/kg/injection, schedule: Q04DX003 (ip), vehicle: Klucel (hydroxypropylcellulose) (HPC) 93 % of control | [3] 101 % of control | endpoint: mean survival time, dose: 400.0 mg/kg/injection, schedule: Q04DX003 (ip), vehicle: Klucel (hydroxypropylcellulose) (HPC) 97 % of control | [4] 88 % of control

CNC(=O)Nc1cc(OC)ccc1OC
inactive: endpoint: mean survival time, dose: 100.0 mg/kg/injection, schedule: Q01DX009 (ip), vehicle: Klucel (hydroxypropylcellulose) (HPC) 106 % of control | endpoint: mean survival time, dose: 200.0 mg/kg/injection, schedule: Q01DX009 (ip), vehicle: Klucel (hydroxypropylcellulose) (HPC) 98 % of control | endpoint: mean survival time, dose: 400.0 mg/kg/injection, schedule: Q01DX009 (ip), vehicle: Klucel (hydroxypropylcellulose) (HPC) 107 % of control

COCCOCC1CO1 (stereo unspecified)
inactive: [5] 100 % of control | [6] 105 % of control | endpoint: mean survival time, dose: 400.0 mg/kg/injection, schedule: Q01DX009 (ip), vehicle: saline 100 % of control

O=C([O-])c1ccccc1[I+]c1ccc(C2CCCCC2)cc1
inactive: endpoint: mean survival time, dose: 50.0 mg/kg/injection, schedule: Q01DX001 (ip), vehicle: saline 100 % of control | [7] 100 % of control | endpoint: mean survival time, dose: 200.0 mg/kg/injection, schedule: Q01DX001 (ip), vehicle: saline 105 % of control | endpoint: mean survival time, dose: 400.0 mg/kg/injection, schedule: Q01DX001 (ip), vehicle: saline 103 % of control

COC(=O)CCC(=O)N1CCOCC1
inactive: [2] 88 % of control | [3] 90 % of control | [4] 88 % of control

NCc1c(Cl)c(Cl)c(CN)c(Cl)c1Cl
inactive: [8] 96 % of control | [9] 92 % of control | [10] 94 % of control | [2] 92 % of control | [11] 88 % of control | [3] 105 % of control

CCN(CC)CCN(C)C
inactive: [5] 102 % of control | [12] 105 % of control | [6] 107 % of control | [13] 97 % of control | [14] 97 % of control

COc1cc(N=Nc2cccc([N+](=O)[O-])c2)ccc1N(CCCl)CCCl
inactive: endpoint: median survival time, dose: 100.0 mg/kg/injection, schedule: Q01DX009 (ip), vehicle: Klucel (hydroxypropylcellulose) (HPC) 98 % of control | endpoint: median survival time, dose: 200.0 mg/kg/injection, schedule: Q01DX009 (ip), vehicle: Klucel (hydroxypropylcellulose) (HPC) 100 % of control | endpoint: median survival time, dose: 400.0 mg/kg/injection, schedule: Q01DX009 (ip), vehicle: Klucel (hydroxypropylcellulose) (HPC) 104 % of control

CC1(C)N=C(N)N=C(N)N1c1ccc(C#N)cc1
inactive: [7] 100 % of control

CC(C)CC1NC(=O)C(Cc2ccc(OCc3ccccc3)cc2)NC1=O (stereo unspecified)
inactive: [10] 102 % of control | [12] 104 % of control | [11] 96 % of control | [13] 88 % of control | endpoint: mean survival time, dose: 400.0 mg/kg/injection, schedule: Q01DX009 (ip), vehicle: saline with Tween-80 100 % of control | [14] 94 % of control

CN(C)CSc1ccccc1
inactive: endpoint: mean survival time, dose: 10.0 mg/kg/injection, schedule: Q01DX001 (ip), vehicle: saline 101 % of control | endpoint: mean survival time, dose: 20.0 mg/kg/injection, schedule: Q01DX001 (ip), vehicle: saline 110 % of control | endpoint: mean survival time, dose: 40.0 mg/kg/injection, schedule: Q01DX001 (ip), vehicle: saline 104 % of control | endpoint: mean survival time, dose: 80.0 mg/kg/injection, schedule: Q01DX001 (ip), vehicle: saline 98 % of control

CCCCC(I)C(C)(C)[n+]1ccccc1 (stereo unspecified)
inactive: endpoint: mean survival time, dose: 12.5 mg/kg/injection, schedule: Q01DX009 (ip), vehicle: saline with Tween-80 119 % of control | endpoint: mean survival time, dose: 12.5 mg/kg/injection, schedule: Q04DX003 (ip), vehicle: saline with Tween-80 100 % of control | endpoint: mean survival time, dose: 25.0 mg/kg/injection, schedule: Q01DX009 (ip), vehicle: saline with Tween-80 106 % of control | endpoint: mean survival time, dose: 25.0 mg/kg/injection, schedule: Q04DX003 (ip), vehicle: saline with Tween-80 96 % of control | [8] 101 % of control | [9] 100 % of control

CCCCOc1ccc(Nc2c3ccccc3nc3ccccc23)cc1
inactive: [1] 123 % of control

Source: PubChem BioAssay AID248 (DTP/NCI, 2004)
